In US20230210834A1, “RNA METHYLTRANSFERASE INHIBITOR, SCREENING METHOD THEREFOR, ANTI-CANCER AGENT EFFICACY ASSESSMENT MARKER, AND KIT FOR EFFECTIVELY PREDICTING FTSJ1 INHIBITOR” (National University Corporation Okayama University, priority 2019, published 2023):
Read-outs that look alike come from different tables or passages of the source.

What was measured:
[1] = system: polyglutamine luciferase reporter; test: Screening: polyglutamine luciferase reporter assay in NUGC3 cells (luminescence % of DMSO); assay type: cell-based, human
Procedure: (§1) Human gastric cancer cell line NUGC3 was cultured in a DMEM medium (high glucose with L-glutamine and phenol red, produced by FUJIFILM Wako Pure Chemical Corporation) containing 10% fetal bovine serum (produced by Thermo Fisher Scientific Inc.) and penicillin-streptomycin (produced by FUJIFILM Wako Pure Chemical Corporation) (this medium is simply referred to below as “DMEM+10% FBS+1×P/S”). Then, the NUGC3 cells were seeded in a 60-mm culture dish (produced by BioLite) so that the cells were 80% confluent after 24 hours. Subsequently, 5 μg of a reporter plasmid and 15 μL of a lipofection reagent (transIT-LT1, produced by Mirus Bio LLC) were mixed in 500 μL of Opti-MEM medium (produced by Thermo Fisher Scientific, Inc.) to form a complex, which was added to the medium in which the NUGC3 cells were cultured in the 60-mm culture dish. For use as the reporter plasmid, 5 μg of a polyglutamine luciferase reporter was introduced (in the polyglutamine luciferase reporter, a Renilla luciferase expressed in the IRES was located as an internal standard downstream of the sequence of a firefly luciferase sequence to which polyglutamine was added). Alternatively, a YAP/TAZ activity reporter was used by simultaneously introducing 3 μg of 8×GTIIC plasmid and 2 μg of a Renilla luciferase reporter as an internal standard. After another 24 hours, the cells were exfoliated with a 0.05 w/v % trypsin-0.53 mmol/l EDTA-4Na solution (produced by FUJIFILM Wako Pure Chemical Corporation), and then seeded in a 96-well plate (produced by BioLite) so that the cells were 80% confluent after 24 hours. Twenty-four hours after seeding in the 96-well plate, the medium in each well was replaced with 100 μL of a medium (DMEM+10% FBS+an antibiotic) containing 10 μM or 5 μM of a compound for evaluation. After another 24 hours, the medium containing the compound was removed, and the 96-well plate was transferred on ice. Each well was washed with 100 μL of phosphate buffer (PBS, produced by FUJIFILM Wako Pure Chemical Corporation). Thereafter, 20 μL of Passive Lysis Buffer (1×) contained in a Dual-Luciferase Reporter Assay System (produced by Promega Corporation) was added. The plate was then gently shaken for 15 minutes at room temperature to lyse the cells. After confirming that the cells were lysed, 10 μL of the lysate was transferred from each well to each corresponding well of a white 96-well plate (produced by Greiner Bio-one). To each well of the white 96-well plate was added 100 μL of a mixture of a Luciferase Assay Buffer II and Luciferase Assay Substrate contained in the Dual-Luciferase Reporter Assay System (produced by Promega Corporation), whereby the luminescence of the firefly luciferase was induced, and the luminescence intensity was detected with a microluminometer (produced by Berthold Japan K.K.). Subsequently, 100 μL of a mixture of Stop & Glo Buffer and Stop & Glo Substrate contained in the Dual-Luciferase Reporter Assay System (produced by Promega Corporation) was added, whereby the luminescence of firefly luciferase was quenched while the luminescence of Renilla luciferase was induced, and the luminescence intensity was detected with a microluminometer (produced by Berthold Japan K.K.) in a manner similar to the above. The ratio of the luminescence intensity of the firefly luciferase and the luminescence intensity of the Renilla luciferase was calculated, and the luminescence intensity (%) of the wells containing each compound was calculated with the luminescence intensity of the well containing DMSO (dimethyl sulfoxide, used as a solvent for the compound liquids) taken as 100%. […] Unless otherwise specified, the measured values in the table represent the results obtained by evaluation with the addition of 10 μM of each compound for evaluation.

YAP/TAZ = test: Screening: YAP/TAZ activity reporter (8xGTIIC plasmid) assay in NUGC3 cells (luminescence % of DMSO); assay type: cell-based, human
Procedure: as §1

[2] = polyglutamine luciferase reporter, NUGC3 cells, luminescence relative to DMSO, concentration not given
[3] = YAP/TAZ activity reporter (8×GTIIC), NUGC3 cells, luminescence relative to DMSO, concentration not given

Compound	Polyglutamine [1, 2] [%]	8×GTIIC (YAP/TAZ; [3]) [%]	Polyglutamine [1] [%]	8×GTIIC (YAP/TAZ) [%]
O=S(=O)(CCC1CCCCC1)c1ccc(-c2ccccc2)cc1 [PVZF2033]	67.7	69.36		
O=S(=O)(NCCC1=CCCCC1)c1ccc(-c2ccccc2)cc1 [PVZF2035, N-(2-(cyclohexy-1-en-1-yl)ethyl)-[1,1′-biphenyl]-4-sulfonamide]			58.85	71.12
CC1(C)CC(CS(=O)(=O)c2ccc(-c3ccccc3)cc2)CC(C)(C)C1 [PVZF2036]	79.76	70.46		
CCC(C)(C)c1ccc(S(=O)(=O)CC2CCCC2)cc1 [PVZF2037]	51.06	43.28		
CCCCCCS(=O)(=O)c1ccc(C(C)(C)CC)cc1 [PVZF2038]	58.2	56.84		
CCC(C)(C)c1ccc(S(=O)(=O)CC2CCCCC2)cc1 [PVZF2039]	53.6	60		
CCC(C)(C)c1ccc(S(=O)(=O)CCc2ccccc2)cc1 [PVZF2041]	78.87	79.61		
CCC(C)(C)c1ccc(S(=O)(=O)CCC2CCCCC2)cc1 [PVZF2042]	34.02	35.98		
CCC(C)(C)c1ccc(S(=O)(=O)CCCC2=CCCCC2)cc1 [PVZF2044]	45.42	55.05		
CC1(C)CC(CS(=O)(=O)c2ccc(C(C)(C)C)cc2)CC(C)(C)S1 [PVZF2045]	65.16	66.26		
CCCCCCS(=O)(=O)c1ccccc1 [PVZF2047]	48.95	63.56		
O=S(=O)(CC1CCCCC1)c1ccccc1 [PVZF2048]	73.33	69.86		
O=S(=O)(CCc1ccccc1)c1ccccc1 [PVZF2050]	49.43	39.57		
O=S(=O)(CCC1CCCCC1)c1ccccc1 [PVZF2051]	38.06	35.1		
O=S(=O)(CC1CCCC1)c1ccc(C2CCCCC2)cc1 [PVZF2064]	64	75.47		
O=S(=O)(CCc1ccccc1)c1ccc(C2CCCCC2)cc1 [PVZF2068]	53.21	74.24		
O=S(=O)(CCCC1CCCCC1)c1ccc(C2CCCCC2)cc1 [PVZF2071]	63.89	70.27		
CC1(C)CC(CS(=O)(=O)c2ccc(C3CCCCC3)cc2)CC(C)(C)S1 [PVZF2072]	80.1	83.58		
CC(C)c1cc(C(C)C)c(S(=O)(=O)CC(c2ccccc2)c2ccc(-c3ccccc3)cc2)c(C(C)C)c1 (stereo not drawn) [PVZF2083]	69	108.4		
CC(=O)C1CC(c2cccc(C)c2)CC1c1ccccc1 (stereo not drawn) [PZ163]	71.16	103.2		
CCc1ccc(C2=CC(C(C)=O)C(c3ccc(CC)c(C)c3)C2)cc1 (stereo not drawn) [PZ173]	67.61	160.5		
CC(=O)C1CC(c2ccc(C)cc2)CC1c1ccc2ccccc2c1 (stereo not drawn) [PZ177]	43.89	71.59		
CC(=O)C1C=C(c2ccc(C)cc2)CC1c1ccc2ccccc2c1 (stereo not drawn) [PZ178]	60.25	119.3		

Compound	Polyglutamine [1, 2] [%]	8×GTIIC (YAP/TAZ; [3]) [%]	Polyglutamine [1] [%]	8×GTIIC (YAP/TAZ) [%]
CC(=O)C1C=C(c2ccccc2)CC1c1ccc2ccccc2c1 (stereo not drawn) [PZ179]	66.51	95.65		
Cc1ccc(S(=O)(=O)CC2CC(C)(C)CC(C)(C)C2)cc1C(F)(F)F [SA001]	83.34	74.98		
Cc1cc(C)c(S(=O)(=O)CC2CC(C)(C)CC(C)(C)C2)cc1C [SA002]	49.58	47.03		
CCCc1cc(C)c(C(C)C)cc1S(=O)(=O)CC1CC(C)(C)CC(C)(C)C1 [SA003]	37.79	46.84		
CCc1cc(C)c(S(=O)(=O)CC2CC(C)(C)CC(C)(C)C2)cc1C(C)C [SA006]	37.54	40.21		
Cc1cc(C)c(S(=O)(=O)CC2CC(C)(C)CC(C)(C)C2)cc1C [SA007]	55.29	56.96		
Cc1cc(C)c(S(=O)(=O)CC2CC(C)(C)CC(C)(C)C2)cc1C [SA008]	51.03	57.06		
Cc1cc(C)c(S(=O)(=O)CC2CC(C)(C)CC(C)(C)C2)cc1C [SA009]	73.02	80.29		
CCc1cc(C)c(S(=O)(=O)CC2CC(C)(C)CC(C)(C)C2)cc1C [SA010]	59.61	64.43		
CCCc1cc(S(=O)(=O)CC2CC(C)(C)CC(C)(C)C2)ccc1C [SA011]	60.35	67.54		
O=C(CCCCc1ccccc1)C1CCC(CS(=O)(=O)c2ccccc2)CC1 (stereo not drawn) [SA012]	86.48	91.92		
CC(C)(C)c1cccc(S(=O)(=O)C2CCC(CS(=O)(=O)c3ccccc3)CC2)c1 (stereo not drawn) [SA016]	43.01	53.02		
CCOc1cc(S(=O)(=O)C2CCC(NS(=O)(=O)c3ccccc3)CC2)ccc1COC (stereo not drawn) [SA018]	78.85	74.98		
Cc1ccc(C(C)(C)C)cc1S(=O)(=O)C1CCC(NS(=O)(=O)c2ccccc2)CC1 (stereo not drawn) [SA019]	55.62	66.45		
COc1ccc(S(=O)(=O)C2CCC(CS(=O)(=O)c3c(C)c(C)c(C)c(C)c3C)CC2)cc1 (stereo not drawn) [SA020]	27.71	36.19		
CCc1ccc(S(=O)(=O)C2CCC(CS(=O)(=O)c3cc(C)cc(C)c3)CC2)cc1 (stereo not drawn) [SA021]	44.6	70.64		
CCCC(=O)C1CCC(CS(=O)(=O)c2ccc3c(c2)CCC(=O)C3)CC1 (stereo not drawn) [SA022]	102.2	66.88		
Cc1cc(C)c(S(=O)(=O)CC2CC(C)(C)SC(C)(C)C2)cc1C [SA023]	63.47	87.74		
CCCC(=O)C1CCC(CS(=O)(=O)c2ccc(C)cc2C)CC1 (stereo not drawn) [SA025]	49.45	46.27		
CCCC(=O)C1CCC(CS(=O)(=O)c2ccc(C)c(C)c2)CC1 (stereo not drawn) [SA026]	63.06	46.21		
Cc1c(C)c(C)c(S(=O)(=O)CC2CC(C)(C)CC(C)(C)C2)c(C)c1C [SA028]	60.03	59.49		
CCCc1ccc(S(=O)(=O)CC2CCC(C3CC3)CC2)cc1OCC (stereo not drawn) [SA029]	58.64	65.65		
